Source: PubChem BioAssay (NCI)
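Briefly, cells in 96-well plates were exposed to five compound concentrations for 48 h, and endpoints were estimated by linear interpolation. TGI denotes the concentration required for complete inhibition of growth.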

Tested on: HCT-116 colon
Test: DTP human tumour cell line panel, 48 h

Row | SMILES | TGI [µM]
1 | S=C(NCc1ccccc1)c1nc[nH]c1C(=S)NCc1ccccc1 | 17.9
2 | O=C(c1ccc(O)cc1)C1c2c3c(cc(O)c2C(c2ccc(O)cc2)C1c1cc(O)cc(O)c1)OC(c1ccc(O)cc1)C3c1cc2c(cc1O)OC(c1ccc(O)cc1)C2c1cc(O)cc(O)c1 (stereo unspecified) | > 12.5
3 | Cc1cc2nc3c(C#N)c(-c4ccccc4)cc(Nc4ccc(Cl)cc4)n3c2cc1C | > 100
4 | CC(=O)OCCn1cnc2nc(Nc3ccccc3)nc(Cl)c21 | > 100
5 | CCC1(CC)SCc2nc3ccccc3n21 | 73.4
6 | O=C1OC[C@@H]2Cc3cc4c(cc3[C@H](c3ccc5c(c3)OCO5)[C@@H]12)OCO4 | > 25
7 | N#C/C(C(=O)Nc1ccccc1)=C(/N)N1CCOCC1 | > 100
8 | O/N=C1/COC(C(F)(F)F)(C(F)(F)F)C1 | > 100
9 | O=S1(=O)OCCOS(=O)(=O)C1F | > 100
10 | C[C@]12CC[C@H](O)CC1=CC[C@@H]1[C@@H]2CC[C@]2(C)C(=O)[C@@H](N3CCOCC3)C[C@@H]12 | > 100
11 | CC(=O)n1nc(-c2ccccc2)n(/N=C/c2ccc([N+](=O)[O-])cc2)c1=O | > 100
12 | COc1ccc(C(=O)Sc2c(-c3ccccc3)c(=O)n(-c3ccccc3)c(=S)n2-c2ccccc2)cc1 | > 100
13 | Cc1ccc(S(=O)(=O)N/N=C/C(=C/c2ccc(Cl)cc2)CC(/C=N/NS(=O)(=O)c2ccc(C)cc2)=C\c2ccc(Cl)cc2)cc1 | 18.9
14 | COc1cc(C[S+]2CCCC2)c(SC)cc1C[S+]1CCCC1 | > 100
15 | COCCOCc1nc(C#N)c(N)o1 | > 100
16 | CC1=C(C#N)C(C#N)(C#N)C(NN(C)C)C1 (stereo unspecified) | 29.2
17 | C[C@]12C=CC(=O)C=C1CC[C@H]1[C@@H]3C[C@@H](O)[C@](O)(C(=O)CO)[C@@]3(C)C[C@H](O)[C@@]12F | > 100
18 | CCSc1n/c(=C\c2ccco2)c2nnnn12 | > 100
19 | CCOC(=O)C1=C(C)N(C)C23OC4(C(=O)OC)CC2c2ccccc2C1N3C4=O (stereo unspecified) | > 100
20 | CC(=O)c1c2c(cc3c1CC1(Cc4ccccc4C1=O)C3)CCC2 (stereo unspecified) | 66.6
21 | CC(=O)NC1C(OCc2ccccc2)OC(CO)C(O)C1OC(C)C(=O)NC(C)C(=O)NC(CCC(=O)NCCCNc1c2ccccc2nc2cccc([N+](=O)[O-])c12)C(N)=O (stereo unspecified) | 2.38
22 | COc1cc(Nc2cnc3cc(F)c(F)cc3n2)cc(OC)c1OC | > 100
23 | COc1ccc(C2CC(=O)CC(c3ccc(OC)cc3)C23C(=O)NC(=O)NC3=O)cc1 (stereo unspecified) | > 100
24 | COC(C)(C)C1=CCC(C)CC1 (stereo unspecified) | > 100
25 | C=C1CC(c2ccc(OCCCN3C(=O)c4ccccc4C3=O)c(OC)c2)OC1=O (stereo unspecified) | 6.6
26 | c1ccc2sc(C3(N4CCCC4)CCCCCC3)cc2c1 | 27.7

Tested on: HL-60(TB) leukemia
Test: DTP human tumour cell line panel, 48 h

Row | SMILES | TGI [µM]
27 | S=C(NCc1ccccc1)c1nc[nH]c1C(=S)NCc1ccccc1 | 25.5
28 | O=C(c1ccc(O)cc1)C1c2c3c(cc(O)c2C(c2ccc(O)cc2)C1c1cc(O)cc(O)c1)OC(c1ccc(O)cc1)C3c1cc2c(cc1O)OC(c1ccc(O)cc1)C2c1cc(O)cc(O)c1 (stereo unspecified) | > 12.5
29 | CC(=O)OCCn1cnc2nc(Nc3ccccc3)nc(Cl)c21 | > 100
30 | CCC1(CC)SCc2nc3ccccc3n21 | 59.5
31 | O=C1OC[C@@H]2Cc3cc4c(cc3[C@H](c3ccc5c(c3)OCO5)[C@@H]12)OCO4 | > 25
32 | O=S1(=O)OCCOS(=O)(=O)C1F | > 100
33 | C[C@]12CC[C@H](O)CC1=CC[C@@H]1[C@@H]2CC[C@]2(C)C(=O)[C@@H](N3CCOCC3)C[C@@H]12 | > 100
34 | CC(=O)n1nc(-c2ccccc2)n(/N=C/c2ccc([N+](=O)[O-])cc2)c1=O | > 100
35 | COc1ccc(C(=O)Sc2c(-c3ccccc3)c(=O)n(-c3ccccc3)c(=S)n2-c2ccccc2)cc1 | > 100
36 | Cc1ccc(S(=O)(=O)N/N=C/C(=C/c2ccc(Cl)cc2)CC(/C=N/NS(=O)(=O)c2ccc(C)cc2)=C\c2ccc(Cl)cc2)cc1 | 8.15
37 | COc1cc(C[S+]2CCCC2)c(SC)cc1C[S+]1CCCC1 | > 100
38 | COCCOCc1nc(C#N)c(N)o1 | > 100
39 | CC1=C(C#N)C(C#N)(C#N)C(NN(C)C)C1 (stereo unspecified) | > 100
40 | C[C@]12C=CC(=O)C=C1CC[C@H]1[C@@H]3C[C@@H](O)[C@](O)(C(=O)CO)[C@@]3(C)C[C@H](O)[C@@]12F | > 100
41 | CCOC(=O)C1=C(C)N(C)C23OC4(C(=O)OC)CC2c2ccccc2C1N3C4=O (stereo unspecified) | > 100
42 | CC(=O)c1c2c(cc3c1CC1(Cc4ccccc4C1=O)C3)CCC2 (stereo unspecified) | 33.7
43 | CC(=O)NC1C(OCc2ccccc2)OC(CO)C(O)C1OC(C)C(=O)NC(C)C(=O)NC(CCC(=O)NCCCNc1c2ccccc2nc2cccc([N+](=O)[O-])c12)C(N)=O (stereo unspecified) | > 100
44 | COc1cc(Nc2cnc3cc(F)c(F)cc3n2)cc(OC)c1OC | > 100
45 | COc1ccc(C2CC(=O)CC(c3ccc(OC)cc3)C23C(=O)NC(=O)NC3=O)cc1 (stereo unspecified) | 81
46 | C=C1CC(c2ccc(OCCCN3C(=O)c4ccccc4C3=O)c(OC)c2)OC1=O (stereo unspecified) | 2.8
47 | c1ccc2sc(C3(N4CCCC4)CCCCCC3)cc2c1 | 35.4

Tested on: HOP-62 NSCLC
Test: DTP human tumour cell line panel, 48 h

Row | SMILES | TGI [µM]
48 | S=C(NCc1ccccc1)c1nc[nH]c1C(=S)NCc1ccccc1 | 26.2
49 | O=C(c1ccc(O)cc1)C1c2c3c(cc(O)c2C(c2ccc(O)cc2)C1c1cc(O)cc(O)c1)OC(c1ccc(O)cc1)C3c1cc2c(cc1O)OC(c1ccc(O)cc1)C2c1cc(O)cc(O)c1 (stereo unspecified) | > 12.5
50 | Cc1cc2nc3c(C#N)c(-c4ccccc4)cc(Nc4ccc(Cl)cc4)n3c2cc1C | > 100
51 | CC(=O)OCCn1cnc2nc(Nc3ccccc3)nc(Cl)c21 | > 100
52 | CCC1(CC)SCc2nc3ccccc3n21 | > 100
53 | O=C1OC[C@@H]2Cc3cc4c(cc3[C@H](c3ccc5c(c3)OCO5)[C@@H]12)OCO4 | > 25
54 | N#C/C(C(=O)Nc1ccccc1)=C(/N)N1CCOCC1 | > 100
55 | O/N=C1/COC(C(F)(F)F)(C(F)(F)F)C1 | > 100
56 | O=S1(=O)OCCOS(=O)(=O)C1F | > 100
